Counter-ions that a name gives are not always drawn.
Experiment: in vitro
Conditions: rat, gh3-tre-luc cells, AC50 (uM) modified / 1000

| Structure (SMILES) | CC50 at 24 h [µM] |
| --- | --- |
| c1coc(CNc2ncnc3[nH]cnc23)c1 [Kinetin] | > 90 |
| CCCCOC(CC)OC(C)COC(O)CC (centres unmarked) [Tripropylene glycol butyl ether] | > 90 |
| CCCCCCCCCCCCN1CCCC1=O [1-Dodecyl-2-pyrrolidinone] | 49.6 |
| FC(F)(F)C(=NOCC1OCCO1)c1ccc(Cl)cc1 [Fluxofenim] | > 90 |
| CC(C)(C)C1(CCc2ccc(Cl)cc2)CO1 (centres unmarked) [2-(2-(4-Chlorophenyl)ethyl)-2-(1,1-dimethylethyl)oxirane] | > 90 |
| O=C(NO)C1(NS(=O)(=O)c2ccc(Oc3ccc(F)cc3)cc2)CCOCC1 [CP-544439] | > 90 |
| C=C(C)C(=O)OCCCCCCCC(C)C [Isodecyl methacrylate] | > 90 |
| Cc1ccccc1C(=O)O [2-Methylbenzoic acid] | > 90 |
| Cc1ccc(S(N)(=O)=O)cc1 [4-Toluenesulfonamide] | > 90 |
| CC/C=C/CCO [(E)-3-Hexen-1-ol] | > 90 |
| CC[C@H](C)[C@@H](C(=O)O)n1sc2ccccc2c1=O [(2S,3S)-3-Methyl-2-(3-oxo-1,2-benzothiazol-2(3H)-yl)pentanoic acid] | > 90 |
| C=CC[N+]1([C@H]2C[C@H]3[C@@H]4CC[C@H]5C[C@H](OC(C)=O)[C@@H](N6CCCCC6)C[C@]5(C)[C@H]4CC[C@]3(C)[C@H]2OC(=O)CC)CCCCC1 [Rapacuronium bromide] | > 50 |
| O=[N+]([O-])c1c2ccccc2cc2ccccc12 [9-Nitroanthracene] | > 90 |
| C[C@@H](O)[C@H]1C(=O)N2C(C(=O)[O-])=C(SC3Cn4cnc[n+]4C3)[C@H](C)[C@H]12 (some centres unmarked) [Biapenem] | > 50 |
| CC(COc1ccc(Oc2ccccc2)cc1)Oc1ccccn1 (centres unmarked) [Pyriproxyfen] | > 90 |
| O=C(O)CC(=O)O [Propanedioic acid] | > 90 |

| Structure (SMILES) | CC50 at 24 h [µM] |
| --- | --- |
| O=C1C(c2[nH]c3ccc(S(=O)(=O)O)cc3c2O)=Nc2ccc(S(=O)(=O)O)cc21 [C.I. Acid Blue 74] | > 90 |
| CCC(C)Nc1ccc(NC(C)CC)cc1 (centres unmarked) [N,N'-Bis(1-methylpropyl)-1,4-benzenediamine] | 14 |
| C[C@]12CCC(=O)C[C@@H]1CC[C@@H]1[C@@H]2CC[C@]2(C)C=CC[C@@H]12 [Androstenone] | > 50 |
| Cc1nc2ccccn2c(=O)c1CCN1CCC(C(=O)c2ccc(F)cc2)CC1 [Pirenperone] | > 50 |
| FC(F)(F)c1ccc(Cl)cc1 [1-Chloro-4-(trifluoromethyl)benzene] | > 90 |
| CC(N)C(=O)OC(C)(C)Cc1ccc(Cl)cc1 (centres unmarked) [Alaproclate] | 25.5 |
| CCN1CC(CCN2CCOCC2)C(c2ccccc2)(c2ccccc2)C1=O (centres unmarked) [Doxapram hydrochloride] | > 50 |
| O=S(=O)(O)c1cc(I)c(O)c2ncccc12 [Loretin] | > 50 |
| CCCCCCCCCCCC[N+](C)(C)Cc1ccccc1 [Benzyldimethyldodecylammonium chloride] | 10.6 |
| COc1ccc(-c2noc(CC(=O)O)c2-c2ccc(OC)cc2)cc1 [Mofezolac] | > 50 |
| CCCCCCCCO[C@@H]1O[C@H](CO)[C@@H](O)[C@H](O)[C@H]1O [Octyl beta-D-glucopyranoside] | > 90 |
| C=CC(=O)OCC(C)C [Isobutyl acrylate] | > 90 |
| C=C(C)C(=O)OCCOC1CC2CC1C1C=CCC21 (centres unmarked) [(Dicyclopentadienyloxy)ethyl methacrylate] | > 100 |
| CC1(C)C(=O)N(Cl)C(=O)N1Br [1-Bromo-3-chloro-5,5-dimethylhydantoin] | > 90 |
| Cc1ccc(OP(=O)(Oc2ccc(C)cc2C)Oc2ccc(C)cc2C)c(C)c1 [TXP] | > 100 |

Same assay, conditions: rat, gh3-tre-luc cells, AC50 (uM) modified / 1000, Tox21_110001=Tox21_200336; viability, 1 nM T3 present, 24 h

| Structure (SMILES) | CC50 at 24 h [µM] |
| --- | --- |
| CC(C)(Cl)[N+](=O)[O-] [2-Chloro-2-nitropropane] | > 90 |

Same assay, conditions: rat, gh3-tre-luc cells, AC50 (uM) modified / 1000, Tox21_110001=Tox21_200640; viability, 1 nM T3 present, 24 h

| Structure (SMILES) | CC50 at 24 h [µM] |
| --- | --- |
| C=C(Cl)CCl [2,3-Dichloro-1-propene] | > 90 |

Same assay, conditions: rat, gh3-tre-luc cells, AC50 (uM) modified / 1000, Tox21_110001=Tox21_201556; viability, 1 nM T3 present, 24 h

| Structure (SMILES) | CC50 at 24 h [µM] |
| --- | --- |
| N#CC(c1ccccc1)c1ccccc1 [Diphenylacetonitrile] | > 90 |

Same assay, conditions: rat, gh3-tre-luc cells, AC50 (uM) modified / 1000, Tox21_110001=Tox21_301855; viability, 1 nM T3 present, 24 h

| Structure (SMILES) | CC50 at 24 h [µM] |
| --- | --- |
| Cc1cc(OC(=O)N(C)C)nn1C(=O)N(C)C [Dimetilan] | > 90 |

Source: publication PMC6792352, “Limited Chemical Structural Diversity Found to Modulate Thyroid Hormone Receptor in the Tox21 Chemical Library” (Environmental Health Perspectives, 2019)
